Values quoted from earlier work as cited in US20090082738A1, “Natural Anti-Inflammatory Agents for Reducing Pain” (priority 2007, published 2009).

Experiments:
[1] = tested on: cyclooxygenase (COX)
[2] = tested on: moderate or severe knee arthritis population; conditions: 1500 mg of glucosamine

Structure (SMILES)	inhibition of cyclooxygenase (COX) [1]	clinical efficacy compared with Celebrex [2]
C/C=C(/C=O)[C@@H](CC=O)CC(=O)OCCc1ccc(O)cc1 [Oleocanthal]	non-selective inhibitor of cyclooxygenase (COX)	
N[C@H]1C(O)O[C@H](CO)[C@@H](O)[C@@H]1O (some centres unmarked) [glucosamine]		superior to the prescription medication Celebrex
